Test results taken from paper PMC6761529 (Antimicrobial Agents and Chemotherapy, 2019).
pIC50, pKi: −log10 of the molar value. Where “and” joins values, the source holds several entries; their conditions need not be identical. Equal entries are not always repeated. Where two headings read alike, the source gives them in different places.

Tests used:
[1] = tested on: O=C(Cc1cccs1)N[C@@H]1C(=O)N2C(C(=O)O)=C(/C=C/c3ccc([N+](=O)[O-])cc3[N+](=O)[O-])CS[C@H]12; experiment: purified protein, by the assay type; settings: other: nitrocefin as substrate; standard error in parentheses, n = 3; pH 7.5; 25.0 °C
S. maltophilia K279a [2] = experiment: MIC broth microdilution, S. maltophilia K279a; assay type: cell-based; settings: for MIC: Stenotrophomonas maltophilia, K279A, read-out: MIC of β-lactam
Description: S. maltophilia K279a is a well-characterized isolate from Bristol, United Kingdom, and was obtained as previously reported ([46]).
(§1) MIC values were determined using broth microdilution, in triplicate, in cation-adjusted Mueller-Hinton broth (Sigma) according to the Clinical and Laboratory Standards Institute (CLSI) guidelines ([47]). […] Plates were incubated overnight at 37°C for 18 to 24 h, and the absorbance at 600 nm was read using a POLARstar Omega (BMG LabTech) plate reader.

K. pneumoniae Ecl8 pUBYT = experiment: MIC broth microdilution, K. pneumoniae Ecl8 pUBYT (empty vector); assay type: cell-based; settings: Klebsiella pneumoniae, ECL8PUBYT, read-out: MIC of β-lactam
From the text: (§2) The pUBYT vector containing blaKPC-3 under the ISKpn7 promoter was used as a template for site-directed mutagenesis to create pUBYT containing blaKPC-2 and blaKPC-4 with the same promoter ([45]). The single point mutation in KPC-2 (Y274H) and double point mutations in KPC-4 (P104R, V240G) were introduced using a QuikChange Lightning site-directed mutagenesis kit (Agilent Genomics) with the primers specified in Table S1 in the supplemental material. Klebsiella pneumoniae Ecl8 was transformed with the resulting pUBYT constructs via electroporation.
as §1

[3] = tested on: K. pneumoniae Ecl8 pUBYT KPC-4; experiment: microbe, parasite or virus in culture; assay type: cell-based; settings: Klebsiella pneumoniae
From the text: as §2, §1

[4] = tested on: K. pneumoniae Ecl8 pUBYT KPC-2; experiment: microbe, parasite or virus in culture; assay type: cell-based; settings: Klebsiella pneumoniae
From the text: as §2, §1

[5] = tested on: K. pneumoniae Ecl8 pUBYT KPC-3; experiment: microbe, parasite or virus in culture; assay type: cell-based; settings: Klebsiella pneumoniae
From the text: as §2, §1

KPC-2 [6] = target: T1, KPC-2 (Klebsiella pneumoniae, UniProt Q9F663); settings: after 24 hours of incubation; cited from earlier work
CTX-M-15 [7] = target: T2, CTX-M-15 (Escherichia coli, UniProt Q9EXV5); experiment: biochemical
Description: (§4) Kinetic parameters were calculated and analyzed using GraphPad Prism 6.
(§5) Diazabicyclooctanes were dissolved in DMSO (100 mM) and diluted to the desired concentration in 10 mM HEPES (pH 7.5) and 150 mM NaCl.

L2 [8] = target: T3, L2 (Stenotrophomonas maltophilia, UniProt Q9RBQ1); experiment: IC50, nitrocefin hydrolysis after 10-minute preincubation, L2; assay type: biochemical
Description: as §4, §5

KPC-2 [9] = target: T1, KPC-2; settings: cited from earlier work
[10] = tested on: KPC variants expressed in K. pneumoniae Ecl8; assay type: cell-based, Klebsiella pneumoniae; settings: in the presence of 4 mg liter^−1 relebactam
From the text: as §2, §1

OXA-48 = target: OXA-48; design: method as in PMID 29627985; settings: cited from earlier work
KPC-2 [11] = target: T1, KPC-2; design: method as in PMID 29627985; settings: cited from earlier work
S. maltophilia K279a [12] = settings: with avibactam; cited from earlier work
KPC-3 [13] = target: T4, KPC-3 (Klebsiella pneumoniae, UniProt Q9F663, H272Y); assay type: biochemical; settings: nitrocefin as substrate; standard error in parentheses, n = 3
Description: as §4

KPC-4 [14] = target: T5, KPC-4 (Klebsiella pneumoniae, UniProt Q9F663, P103R/V239G); experiment: Steady-state nitrocefin hydrolysis, KPC-4; assay type: biochemical; settings: nitrocefin as substrate; standard error in parentheses, n = 3
Description: as §4

KPC-2 [15] = target: T1, KPC-2; assay type: biochemical; settings: nitrocefin as substrate; standard error in parentheses, n = 3
Description: as §4

L2 [16] = target: T3, L2; settings: recombinant enzyme
Description: (§3) Final enzyme concentrations were as follows: 50 nM KPC-2, 5 nM KPC-3, 50 nM KPC-4, 50 pM CTX-M-15, and 50 pM L2. Complete progress curves were collected, and the results fitted to equation 8 to obtain koff.(8) A=vf*t+(v0−vf)*(1−e^−kofft)/koff+A0

KPC-2 [17] = target: T1, KPC-2; settings: recombinant enzyme
Description: as §3

KPC-4 [18] = target: T5, KPC-4
Description: as §3

KPC-3 [19] = target: T4, KPC-3
Description: as §3

CTX-M-15 [20] = target: T2, CTX-M-15; settings: recombinant enzyme
Description: as §3

[21] = target: Pseudomonas-derived cephalosporinase-3 (PDC-3); settings: read-out: Kiapp; cited from earlier work
L2 [22] = target: T3, L2; experiment: Direct competition of relebactam and nitrocefin (Kiapp, k2/K), L2; assay type: biochemical; settings: Dixon plot, no preincubation; standard deviation in parentheses
Description: as §4
(2) E+I⇌k−1k1E:I⇌k−2k2E-I→k3E-I′→k4E+P
(§6) Complete progress curves were fitted to equation 5 in order to obtain values for kobs (pseudo-first-order rate constant for inactivation).(5) A=vf*t+(v0−vf)*((1−e^−kobs*t)/kobs)+A0
(§7) ([I]) according to equation 6, with the uncorrected value for k2/K (k2/K′) then equal to the slope of the line.(6) kobs=k−2+k2/K^′*[I]

CTX-M-15 [23] = target: T2, CTX-M-15; experiment: Direct competition of relebactam and nitrocefin (Kiapp, k2/K), CTX-M-15; assay type: biochemical
Description: as §4
(2) E+I⇌k−1k1E:I⇌k−2k2E-I→k3E-I′→k4E+P
as §6, §7

[24] = ECL8PUBYTKPC4, read-out: MIC of β-lactam, no inhibitor present
[25] = ECL8PUBYTKPC2, read-out: MIC of β-lactam, no inhibitor present
[26] = ECL8PUBYTKPC3, read-out: MIC of β-lactam, no inhibitor present

Compound: CTX-M-15 (Escherichia coli)
- Km [1]: 63 (11) µM
- kcat [1]: 312 (8) s-1
- kcat/Km [1]: 5e+06 M⁻¹ s⁻¹

Compound: CC(C)(O/N=C(\C(=O)N[C@@H]1C(=O)N2C(C(=O)[O-])=C(C[n+]3ccccc3)CS[C@H]12)c1csc(N)n1)C(=O)O [Ceftazidime, ceftazidime]
- MIC (S. maltophilia K279a [2]; +AVI (avibactam, 4 mg/liter)): 8 µg/mL
- MIC (S. maltophilia K279a [2]; no inhibitor present): 16 µg/mL
- MIC (K. pneumoniae Ecl8 pUBYT): < 0.125 µg/mL
- MIC ([3]; ECL8PUBYTKPC4, read-out: MIC of β-lactam, +AVI (avibactam, 4 mg/liter)): 1 µg/mL
- MIC [3, 24]: 128 µg/mL
- MIC ([4]; ECL8PUBYTKPC2, read-out: MIC of β-lactam, +AVI (avibactam, 4 mg/liter)): 0.125 µg/mL
- MIC [4, 25]: 16 µg/mL
- MIC ([5]; ECL8PUBYTKPC3, read-out: MIC of β-lactam, +AVI (avibactam, 4 mg/liter)): < 0.125 µg/mL
- MIC [5, 26]: 128 µg/mL

Compound: NC(=O)[C@@H]1CC[C@@H]2CN1C(=O)N2OS(=O)(=O)O [Avibactam, avibactam]
- KPC-2 remaining acylated (KPC-2 [6]): 10%
- pIC50 (CTX-M-15 [7]): 8.47
- pIC50 (L2 [8]): 7.82

Compound: L2 (Stenotrophomonas maltophilia)
- Km [1]: 206 (27) µM
- kcat [1]: 813 (41) s-1
- kcat/Km [1]: 4e+06 M⁻¹ s⁻¹

Compound: O=C(NNC(=O)[C@@H]1CC[C@@H]2CN1C(=O)N2OS(=O)(=O)O)[C@@H]1CCCNC1 [WCK-5107, zidebactam]
- Ki value, fold higher than avibactam (KPC-2 [9]): 5 fold
- Ki value, fold higher than relebactam (KPC-2 [9]): 2 fold

Compound: C[C@@H](O)[C@H]1C(=O)N2C(C(=O)O)=C(SCCN=CN)C[C@H]12 [Imipenem, imipenem]
- MIC (S. maltophilia K279a [2]; +REL (relebactam, 4 mg/liter)): 64 µg/mL
- MIC (S. maltophilia K279a [2]; no inhibitor present): 128 µg/mL
- MIC (K. pneumoniae Ecl8 pUBYT): < 0.0625 µg/mL
- MIC ([3]; ECL8PUBYTKPC4, read-out: MIC of β-lactam, +REL (relebactam, 4 mg/liter)): 0.125 µg/mL
- MIC [3, 24]: 0.5 µg/mL
- MIC ([4]; ECL8PUBYTKPC2, read-out: MIC of β-lactam, +REL (relebactam, 4 mg/liter)): 0.5 µg/mL
- MIC [4, 25]: 64 µg/mL
- MIC ([5]; ECL8PUBYTKPC3, read-out: MIC of β-lactam, +REL (relebactam, 4 mg/liter)): < 0.125 µg/mL
- MIC [5, 26]: 16 µg/mL
- imipenem MICs in all KPC producers [10]: ≤ 0.5 mg/L

Compound: N#C[C@@H]1CC[C@@H]2CN1C(=O)N2OS(=O)(=O)O [WCK-4234]
- pKi (OXA-48): 6.54
- off rate (KPC-2 [11]): 0.00045 s⁻¹

Compound: C[C@H]1[C@H](NC(=O)/C(=N\OC(C)(C)C(=O)O)c2csc(N)n2)C(=O)N1S(=O)(=O)O [Aztreonam, aztreonam]
- MIC (S. maltophilia K279a [2]; +REL (relebactam, 4 mg/liter)): 8 µg/mL
- MIC (S. maltophilia K279a [2]; no inhibitor present): > 256 µg/mL
- aztreonam MIC (S. maltophilia K279a [2]; addition of relebactam): 8 µg/mL
- aztreonam MIC (S. maltophilia K279a [2]; without inhibitor): 256 µg/mL
- aztreonam MIC (S. maltophilia K279a [12]): 2 µg/mL

Compound: O=C(Cc1cccs1)N[C@@H]1C(=O)N2C(C(=O)O)=C(/C=C/c3ccc([N+](=O)[O-])cc3[N+](=O)[O-])CS[C@H]12 [Nitrocefin, nitrocefin]
- Km (KPC-3 [13]): 36 µM
- kcat (KPC-3 [13]): 88 (8) s-1
- Km (KPC-4 [14]): 59 µM
- kcat (KPC-4 [14]): 166 (44) s-1
- Km (KPC-2 [15]): 18.3 µM
- kcat (KPC-2 [15]): 613 (9) s-1

Compound: O=C(NC1CCNCC1)[C@@H]1CC[C@@H]2CN1C(=O)N2OS(=O)(=O)O [Relebactam, relebactam]
- t1/2 (L2 [16]): 21 min
- t1/2 (KPC-2 [17]): 13 min
- reduction in off-rate compared with KPC-2 (KPC-4 [18]; KPC-4 vs KPC-2): ~4.5 fold
- t1/2 (KPC-4 [18]; recombinant enzyme): 61 min
- reduction in off-rate compared with KPC-2 (KPC-3 [19]; KPC-3 vs KPC-2): ~4.5 fold
- t1/2 (KPC-3 [19]; recombinant enzyme): 58 min
- t1/2 (CTX-M-15 [20]): 30 min
- pKi [21]: 5.47
- pKi (L2 [22]): 5.52 and 5.57
- pIC50 (CTX-M-15 [7]): 6.40
- pKi (CTX-M-15 [23]): 4.68
- pIC50 (L2 [8]): 6.33
